#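 Tested at 5 concentrations; 48 h exposure; 96-well plates; endpoints linearly interpolated, else capped at highest concentration. TGI marks complete inhibition of growth.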
# Tests used:
# Test in all cases: NCI-60 cell line screen, 48 h
# SK-MEL-5 melanoma = test system: SK-MEL-5 melanoma
# TK-10 renal = test system: TK-10 renal
# NCI-H460 lung = test system: NCI-H460 lung
# MALME-3M melanoma = test system: MALME-3M melanoma
# MOLT-4 leukemia = test system: MOLT-4 leukemia
# OVCAR-3 ovarian = test system: OVCAR-3 ovarian
# HOP-62 NSCLC = test system: HOP-62 NSCLC
# T-47D breast = test system: T-47D breast
# MDA-MB-231 breast = test system: MDA-MB-231 breast
# CAKI-1 renal = test system: CAKI-1 renal
# SF-539 CNS = test system: SF-539 CNS
# M14 melanoma = test system: M14 melanoma
# MDA-N = test system: MDA-N
# HL-60(TB) leukemia = test system: HL-60(TB) leukemia
# OVCAR-8 ovarian = test system: OVCAR-8 ovarian
# EKVX NSCLC = test system: EKVX NSCLC
# SR leukemia = test system: SR leukemia
# HOP-92 NSCLC = test system: HOP-92 NSCLC
# NCI-H226 lung = test system: NCI-H226 lung
# MCF7 breast = test system: MCF7 breast
# ACHN renal = test system: ACHN renal
# HT29 colon = test system: HT29 colon
# A549 NSCLC = test system: A549 NSCLC
# COLO 205 colon = test system: COLO 205 colon
# UACC-62 melanoma = test system: UACC-62 melanoma
# U251 CNS = test system: U251 CNS
# SNB-75 CNS = test system: SNB-75 CNS
# LOX IMVI melanoma = test system: LOX IMVI melanoma
# A498 renal = test system: A498 renal
# BT-549 breast = test system: BT-549 breast
# NCI-H23 lung = test system: NCI-H23 lung
# SK-MEL-2 melanoma = test system: SK-MEL-2 melanoma
# SW-620 colon = test system: SW-620 colon
# SNB-19 CNS = test system: SNB-19 CNS
# OVCAR-4 ovarian = test system: OVCAR-4 ovarian
# SF-268 CNS = test system: SF-268 CNS
# MDA-MB-435 = test system: MDA-MB-435
# SK-MEL-28 melanoma = test system: SK-MEL-28 melanoma
# CCRF-CEM leukemia = test system: CCRF-CEM leukemia
# RXF 393 renal = test system: RXF 393 renal
# UO-31 renal = test system: UO-31 renal
# SN12C renal = test system: SN12C renal
# HCT-15 colon = test system: HCT-15 colon
# NCI/ADR-RES ovarian = test system: NCI/ADR-RES ovarian
# SF-295 CNS = test system: SF-295 CNS
# OVCAR-5 ovarian = test system: OVCAR-5 ovarian
# K-562 leukemia = test system: K-562 leukemia
# 786-0 renal = test system: 786-0 renal
# UACC-257 melanoma = test system: UACC-257 melanoma
# NCI-H522 lung = test system: NCI-H522 lung
# HS 578T breast = test system: HS 578T breast
# IGROV1 ovarian = test system: IGROV1 ovarian
# DU-145 prostate = test system: DU-145 prostate
# HCT-116 colon = test system: HCT-116 colon
# PC-3 prostate = test system: PC-3 prostate
# SK-OV-3 ovarian = test system: SK-OV-3 ovarian
# RPMI-8226 leukemia = test system: RPMI-8226 leukemia
# HCC-2998 colon = test system: HCC-2998 colon
# KM12 colon = test system: KM12 colon
compound,measurement,setting,value
Oc1ccc(O)c(CNc2ccc(C(O)C(F)(F)F)cc2)c1 (configuration not stated),TGI,SK-MEL-5 melanoma,76.2 µM
same,TGI,TK-10 renal,33.1 µM
same,TGI,NCI-H460 lung,47.3 µM
same,TGI,MALME-3M melanoma,31 µM
same,TGI,MOLT-4 leukemia,29.7 µM
same,TGI,OVCAR-3 ovarian,15.4 µM
same,TGI,HOP-62 NSCLC,43 µM
same,TGI,T-47D breast,61.5 µM
same,TGI,MDA-MB-231 breast,33.7 µM
same,TGI,CAKI-1 renal,29.7 µM
same,TGI,SF-539 CNS,21.1 µM
same,TGI,M14 melanoma,35.5 µM
same,TGI,MDA-N,25.9 µM
same,TGI,HL-60(TB) leukemia,16.4 µM
same,TGI,OVCAR-8 ovarian,> 100 µM
same,TGI,EKVX NSCLC,27.8 µM
same,TGI,SR leukemia,83.6 µM
same,TGI,HOP-92 NSCLC,27.7 µM
same,TGI,NCI-H226 lung,84.1 µM
same,TGI,MCF7 breast,69.2 µM
same,TGI,ACHN renal,26.6 µM
same,TGI,HT29 colon,> 100 µM
same,TGI,A549 NSCLC,> 100 µM
same,TGI,COLO 205 colon,37.8 µM
same,TGI,UACC-62 melanoma,35.8 µM
same,TGI,U251 CNS,> 100 µM
same,TGI,SNB-75 CNS,> 100 µM
same,TGI,LOX IMVI melanoma,32.2 µM
same,TGI,A498 renal,> 100 µM
same,TGI,BT-549 breast,28.2 µM
same,TGI,NCI-H23 lung,56.9 µM
same,TGI,SK-MEL-2 melanoma,88 µM
same,TGI,SW-620 colon,> 100 µM
same,TGI,SNB-19 CNS,> 100 µM
same,TGI,OVCAR-4 ovarian,30.3 µM
same,TGI,SF-268 CNS,66 µM
same,TGI,MDA-MB-435,47.4 µM
same,TGI,SK-MEL-28 melanoma,77.3 µM
same,TGI,CCRF-CEM leukemia,33.5 µM
same,TGI,RXF 393 renal,26.7 µM
same,TGI,UO-31 renal,21.9 µM
same,TGI,SN12C renal,47.5 µM
same,TGI,HCT-15 colon,30.7 µM
same,TGI,NCI/ADR-RES ovarian,> 100 µM
same,TGI,SF-295 CNS,32.5 µM
same,TGI,OVCAR-5 ovarian,40.8 µM
same,TGI,K-562 leukemia,> 100 µM
same,TGI,786-0 renal,29 µM
same,TGI,UACC-257 melanoma,34.6 µM
same,TGI,NCI-H522 lung,5.67 µM
same,TGI,HS 578T breast,> 100 µM
same,TGI,IGROV1 ovarian,30.1 µM
same,TGI,DU-145 prostate,28.5 µM
same,TGI,HCT-116 colon,32.2 µM
same,TGI,PC-3 prostate,> 100 µM
same,TGI,SK-OV-3 ovarian,> 100 µM
COC(=O)c1n[nH]c(C)c1N=NN(C)CCC#N,TGI,SK-MEL-5 melanoma,74.5 µM
same,TGI,TK-10 renal,62.4 µM
same,TGI,NCI-H460 lung,36.5 µM
same,TGI,MALME-3M melanoma,34.6 µM
same,TGI,MOLT-4 leukemia,15.1 µM
same,TGI,OVCAR-3 ovarian,42.2 µM
same,TGI,HOP-62 NSCLC,37 µM
same,TGI,T-47D breast,93 µM
same,TGI,MDA-MB-231 breast,62.8 µM
same,TGI,RPMI-8226 leukemia,34.9 µM
same,TGI,CAKI-1 renal,33.4 µM
same,TGI,SF-539 CNS,30.3 µM
same,TGI,M14 melanoma,> 100 µM
same,TGI,MDA-N,> 100 µM
same,TGI,HL-60(TB) leukemia,87.6 µM
same,TGI,OVCAR-8 ovarian,34.4 µM
same,TGI,EKVX NSCLC,29.2 µM
same,TGI,SR leukemia,44.6 µM
same,TGI,HCC-2998 colon,44.1 µM
same,TGI,HOP-92 NSCLC,35 µM
same,TGI,NCI-H226 lung,35.8 µM
same,TGI,KM12 colon,51.4 µM
same,TGI,MCF7 breast,25.7 µM
same,TGI,ACHN renal,25.4 µM
same,TGI,HT29 colon,87.8 µM
same,TGI,A549 NSCLC,> 100 µM
same,TGI,COLO 205 colon,26.9 µM
same,TGI,UACC-62 melanoma,35.2 µM
same,TGI,U251 CNS,41.5 µM
same,TGI,SNB-75 CNS,33 µM
same,TGI,LOX IMVI melanoma,> 100 µM
same,TGI,A498 renal,> 100 µM
same,TGI,BT-549 breast,28.6 µM
same,TGI,NCI-H23 lung,36.5 µM
same,TGI,SK-MEL-2 melanoma,61.9 µM
same,TGI,SW-620 colon,34 µM
same,TGI,SNB-19 CNS,87 µM
same,TGI,OVCAR-4 ovarian,30.7 µM
same,TGI,SF-268 CNS,50 µM
same,TGI,MDA-MB-435,> 100 µM
same,TGI,SK-MEL-28 melanoma,> 100 µM
same,TGI,CCRF-CEM leukemia,41.5 µM
same,TGI,RXF 393 renal,29.7 µM
same,TGI,UO-31 renal,13.3 µM
same,TGI,SN12C renal,33.8 µM
same,TGI,HCT-15 colon,32.1 µM
same,TGI,NCI/ADR-RES ovarian,36.4 µM
same,TGI,SF-295 CNS,73.4 µM
same,TGI,K-562 leukemia,60 µM
same,TGI,786-0 renal,48.4 µM
same,TGI,UACC-257 melanoma,> 100 µM
same,TGI,NCI-H522 lung,25.1 µM
same,TGI,HS 578T breast,52 µM
same,TGI,IGROV1 ovarian,93.6 µM
same,TGI,DU-145 prostate,51.6 µM
same,TGI,HCT-116 colon,46.3 µM
same,TGI,PC-3 prostate,74.7 µM
same,TGI,SK-OV-3 ovarian,61.5 µM
CC(ON(C(c1ccccc1)C(C)C)C(C)(C)C)c1ccccc1 (configuration not stated),TGI,SK-MEL-5 melanoma,29.7 µM
same,TGI,TK-10 renal,46.2 µM
same,TGI,NCI-H460 lung,39.1 µM
same,TGI,MALME-3M melanoma,71.6 µM
same,TGI,MOLT-4 leukemia,35.9 µM
same,TGI,OVCAR-3 ovarian,30 µM
same,TGI,HOP-62 NSCLC,38.9 µM
same,TGI,T-47D breast,81 µM
same,TGI,MDA-MB-231 breast,39.3 µM
same,TGI,RPMI-8226 leukemia,73.7 µM
same,TGI,CAKI-1 renal,55.7 µM
same,TGI,SF-539 CNS,43.7 µM
same,TGI,M14 melanoma,49.2 µM
same,TGI,MDA-N,81.3 µM
same,TGI,HL-60(TB) leukemia,36.7 µM
same,TGI,OVCAR-8 ovarian,51.7 µM
same,TGI,EKVX NSCLC,29 µM
same,TGI,SR leukemia,67.6 µM
same,TGI,HCC-2998 colon,33.7 µM
same,TGI,HOP-92 NSCLC,40.3 µM
same,TGI,NCI-H226 lung,36.6 µM
same,TGI,KM12 colon,41.8 µM
same,TGI,MCF7 breast,30 µM
same,TGI,ACHN renal,29.3 µM
same,TGI,HT29 colon,43.5 µM
same,TGI,A549 NSCLC,84.9 µM
same,TGI,COLO 205 colon,32.5 µM
same,TGI,UACC-62 melanoma,32.2 µM
same,TGI,U251 CNS,30.9 µM
same,TGI,SNB-75 CNS,42.9 µM
same,TGI,LOX IMVI melanoma,35.3 µM
same,TGI,BT-549 breast,28.7 µM
same,TGI,NCI-H23 lung,63.9 µM
same,TGI,SK-MEL-2 melanoma,34.4 µM
same,TGI,SW-620 colon,31.6 µM
same,TGI,SNB-19 CNS,35.9 µM
same,TGI,OVCAR-4 ovarian,> 100 µM
same,TGI,SF-268 CNS,52.2 µM
same,TGI,MDA-MB-435,68.9 µM
same,TGI,SK-MEL-28 melanoma,47.5 µM
same,TGI,CCRF-CEM leukemia,39.3 µM
same,TGI,RXF 393 renal,31.2 µM
same,TGI,UO-31 renal,43.3 µM
same,TGI,SN12C renal,32.5 µM
same,TGI,HCT-15 colon,> 100 µM
same,TGI,NCI/ADR-RES ovarian,56.7 µM
same,TGI,SF-295 CNS,28.5 µM
same,TGI,OVCAR-5 ovarian,29.8 µM
same,TGI,K-562 leukemia,49.8 µM
same,TGI,786-0 renal,30.7 µM
same,TGI,UACC-257 melanoma,47.1 µM
same,TGI,NCI-H522 lung,44.4 µM
same,TGI,HS 578T breast,64.1 µM
same,TGI,IGROV1 ovarian,59.2 µM
same,TGI,DU-145 prostate,32.8 µM
same,TGI,HCT-116 colon,33.9 µM
same,TGI,PC-3 prostate,94 µM
same,TGI,SK-OV-3 ovarian,> 100 µM
